Assay results published in patent US20110143948A1, “MOLECULAR SIGNATURES AND BIOMARKERS ASSOCIATED WITH MELANOMA AND METHODS OF USE THEREOF” (priority 2008, published 2011).

System: ncRNAs (SEQ ID NO 28-89)
Test: ncRNA arrays of melanocytes, keratinocytes, normal skin, melanoma cell lines and patient samples
Parameters: species or system human
Conditions: for ncRNA array expression, patient 2: melanoma patient 2 sample compared to normal skin; for ncRNA array expression, patient 3: melanoma patient 3 sample compared to normal skin; for ncRNA array expression, patient 4: melanoma patient 4 sample compared to normal skin; for ncRNA array expression, patient 5: melanoma patient 5 sample compared to normal skin; for ncRNA array expression, patient 6: melanoma patient 6 sample compared to normal skin; for ncRNA array expression, patient 7: melanoma patient 7 sample compared to normal skin; for ncRNA array expression, patient 8: melanoma patient 8 sample compared to normal skin; for ncRNA array expression, patient 9: melanoma patient 9 sample compared to normal skin; for ncRNA array expression, patient 10: melanoma patient 10 sample compared to normal skin; for ncRNA array expression, patient 19: melanoma patient 19 sample compared to normal skin; for ncRNA array expression, patient 20: melanoma patient 20 sample compared to normal skin; for ncRNA array expression, patient 21: melanoma patient 21 sample compared to normal skin; for ncRNA array expression, patient 22: melanoma patient 22 sample compared to normal skin; for ncRNA array expression, patient 23: melanoma patient 23 sample compared to normal skin; for ncRNA array expression, patient 24: melanoma patient 24 sample compared to normal skin; for ncRNA array expression, patient 25: melanoma patient 25 sample compared to normal skin; for ncRNA array expression, patient 26: melanoma patient 26 sample compared to normal skin; for ncRNA array expression, patient 27: melanoma patient 27 sample compared to normal skin; for ncRNA array expression, patient 28: melanoma patient 28 sample compared to normal skin; for ncRNA array expression, patient 29: melanoma patient 29 sample compared to normal skin; for ncRNA array expression, patient 30: melanoma patient 30 sample compared to normal skin
Procedure: An ncRNA array platform that contains over 10,000 putative (>200 nt) ncRNAs including most of the known ncRNAs in mouse and human was conducted to evaluate ncRNAs within melanoma. Lack of coding potential was estimated by an algorithm that scores various characteristics of protein-coding genes, including open reading frame length, synonymous/non-synonymous base substitution rates and similarity to known proteins. These arrays provide the first generation of tools designed to analyze the dynamic expression of a large subset of ncRNAs in human and mouse and to identify candidate genes for more detailed functional analysis. In addition to the ncRNA content, probes targeting mRNA content from RefSeq are also included, allowing discovery of coordinated expression with associated protein-coding genes. The result of these assays is a list of ncRNA genes (i.e. SEQ ID NO 28-89) and maps of their sequence boundaries. We have profiled total RNA isolated from melanocytes, keratinocytes, normal human skin, melanoma cell lines and melanoma patient samples to identify differentially expressed ncRNAs in cell lines and tissues. ncRNAs expression in all tested samples were compared to either melanocytes or normal skin. We have identified a group of ncRNAs that are specific for (a) melanocytes (b) Keratinocytes (c) Melanoma cell lines (d) Melanoma patients. […] Probe DNA sequences for this array include: AF086032 (SEQ ID NO 107) […] BC071821 (SEQ ID NO 108) […] C AK130193 (SEQ ID NO 109) […] AL109719 (SEQ ID NO 110) […] AF085888 (SEQ ID NO 111) […] T BC033879 (SEQ ID NO 112) […] AA AK024556 (SEQ ID NO 113) […] Probe nomenclature is standard genebank IDs given by NCBI and other organizations.
Keratinocytes specific signatures were subtracted and resultant ncRNAs were validated by qRT-PCR and Northern blots. Results point out the presence of a group of melanoma specific ncRNAs (i.e. SEQ ID NO 28-89).

Substance | ncRNA array expression, patient 2 | ncRNA array expression, patient 3 | ncRNA array expression, patient 4 | ncRNA array expression, patient 5 | ncRNA array expression, patient 6 | ncRNA array expression, patient 7 | ncRNA array expression, patient 8 | ncRNA array expression, patient 9 | ncRNA array expression, patient 10 | ncRNA array expression, patient 19 | ncRNA array expression, patient 20 | ncRNA array expression, patient 21 | ncRNA array expression, patient 22 | ncRNA array expression, patient 23 | ncRNA array expression, patient 24 | ncRNA array expression, patient 25 | ncRNA array expression, patient 26 | ncRNA array expression, patient 27 | ncRNA array expression, patient 28 | ncRNA array expression, patient 29 | also measured
SEQ ID NO 28 (CTTAATGTATCTAAGGTTGGCTTAATCCTGTCTAAAATCAAGGTATTGGACTAGAACAAT; DNA, backbone and methylation of C not given here; listed as Homo sapiens) | 2.064 | 2.037 | 2.709 | 1.822 | −0.1399 | 2.032 | 1.588 | 0.7923 | −0.2665 | 0.5486 | 1.334 | 0.4728 | 1.388 | 2.286 | 0.3368 | 2.417 | 3.091 | 2.371 | 3.316 | 3.278 | ncRNA array expression, patient 30: −1.35
SEQ ID NO 29 (TTAAATACATGTTTCTAATATTTTAGTGTTTTGTATTTAGGTTATTTATTCTTTGTATCT; DNA, backbone and methylation of C not given here; listed as Homo sapiens) | 3.623 | 2.485 | 3.452 | 2.59 | 1.012 | 2.658 | 3.211 | 2.109 | 2.287 | 0.6625 | 2.377 | 2.504 | 1.796 | 1.689 | 2.143 | 3.284 | 3.992 | 2.873 | 2.81 | 4.101 | ncRNA array expression, patient 30: −2.062
SEQ ID NO 30 (ATTCCAAGGCCTATTAAAATTTCTGAGCATTGCCCATTTCTTTTGCTTTATCTGTAGGAC; DNA, backbone and methylation of C not given here; listed as Homo sapiens) | 4.3 | 3.169 | 2.472 | 3.84 | 2.191 | 4.639 | 2.888 | 0.4508 | 3.549 | 0.5363 | 1.367 | 3.468 | 1.187 | 0.3079 | −1.318 | 1.316 | 2.451 | 4.706 | 0.8038 | 4.757 | ncRNA array expression, patient 30: 1.117
SEQ ID NO 31 (TTGCTTTTGTATTTGTAATTTTATGACATTTCGAAGTTTCTGTGTCTTAACTCTTTTTAA; listed as DNA, chemistry not given here; listed as Homo sapiens) | 2.958 | 2.154 | 2.238 | 2.368 | 1.429 | 4.22 | −0.4178 | 2.588 | 3.165 | 2.105 | 2.853 | 4.304 | 2.578 | 2.86 | 1.373 | 2.408 | 3.487 | 2.156 | 2.25 | 2.949 | ncRNA array expression, patient 30: −2.886
SEQ ID NO 32 (ATTCAAATCTTCATGAATGGCATCACTTGCTTTAGACCCATTTTTTTTTTATTGGTCAGA; DNA, backbone and methylation of C not given here; listed as Homo sapiens) | 1.211 | 0.4737 | 2.717 | 1.51 | 0.7439 | 1.568 | 2.606 | 1.062 | 0.7286 | 2.126 | 3.196 | 0.7443 | 0.9022 | 0.8613 | 1.339 | 4.072 | 3.121 | 3.501 | 0.9963 | 1.473 | ncRNA array expression, patient 30: −2.05
SEQ ID NO 33 (TATTGAATGTACACAAGTAATGATGGAGTTTGATTATATGGTTCATTTTCATTTATCCTA; DNA, backbone and methylation of C not given here; listed as Homo sapiens) | 0.6575 | 0.8123 | 3.512 | 0.6998 | 1.768 | 2.379 | 2.278 | 0.3136 | 1.984 | 1.068 | 1.404 | 1.613 | 0.8185 | −0.4072 | 3.016 | 1.628 | 2.999 | 3.593 | 2.24 | 2.111 | ncRNA array expression, patient 30: −0.2823
